PubChem BioAssay (NCI)
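Growth conditions: 96-well plates. Treatment: test compound, 48 hours, 5 concentrations. Analysis: linear interpolation between bracketing concentrations; unreached endpoints set to highest concentration. TGI is the concentration that stops growth completely.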

Columns and labels:
Test in all cases: NCI anticancer screen, dose series, 48 h
[1] = test system: DU-145 prostate
[2] = test system: UACC-62 melanoma
[3] = test system: MCF7 breast
[4] = test system: HCT-116 colon
[5] = test system: T-47D breast
[6] = test system: LOX IMVI melanoma
[7] = test system: HL-60(TB) leukemia
[8] = test system: PC-3 prostate
[9] = test system: UACC-257 melanoma
[10] = test system: SNB-75 CNS
[11] = test system: SW-620 colon
[12] = test system: K-562 leukemia
[13] = test system: MOLT-4 leukemia
[14] = test system: A498 renal
[15] = test system: M14 melanoma
[16] = test system: U251 CNS
[17] = test system: MALME-3M melanoma
[18] = test system: NCI-H522 lung

SMILES: NC(=O)N/N=C/c1ccccc1O
- TGI [1]: > 100 µM
- TGI [2]: > 100 µM
- TGI [3]: > 100 µM
- TGI [4]: > 100 µM
- TGI [5]: > 100 µM
- TGI [6]: > 100 µM
- TGI [7]: > 100 µM
- TGI [8]: > 100 µM
- TGI [9]: > 100 µM
- TGI [10]: > 100 µM
- TGI [11]: > 100 µM
- TGI [12]: > 100 µM
- TGI [13]: > 100 µM
- TGI [14]: > 100 µM
- TGI [15]: > 100 µM
- TGI [16]: > 100 µM

SMILES: COC(=O)c1c(OC(C)=O)ccc2c1c1cc3ccccc3c(OC(C)=O)c1n2C
- TGI [1]: 44.6 µM
- TGI [2]: > 100 µM
- TGI [3]: > 100 µM
- TGI [4]: 74 µM
- TGI [5]: 39.8 µM
- TGI [7]: > 100 µM
- TGI [17]: 56.2 µM
- TGI [18]: 42.9 µM
- TGI [8]: > 100 µM
- TGI [10]: 36 µM
- TGI [12]: > 100 µM
- TGI [13]: > 100 µM
- TGI [14]: 46 µM
- TGI [15]: > 100 µM
- TGI [16]: > 100 µM

SMILES: Cc1ccc(S(=O)(=O)NC(=O)NCC(=O)O)cc1
- TGI [1]: > 100 µM
- TGI [2]: > 100 µM
- TGI [3]: > 100 µM
- TGI [4]: > 100 µM
- TGI [5]: > 100 µM
- TGI [6]: > 100 µM
- TGI [7]: > 100 µM
- TGI [17]: > 100 µM
- TGI [18]: > 100 µM
- TGI [8]: > 100 µM
- TGI [9]: > 100 µM
- TGI [10]: > 100 µM
- TGI [11]: > 100 µM
- TGI [12]: > 100 µM
- TGI [13]: > 100 µM
- TGI [15]: > 100 µM
- TGI [16]: > 100 µM

SMILES: Cc1ccc(NCc2nnc3c(-c4ccccc4)nc4ccccc4n23)cc1
- TGI [1]: > 100 µM
- TGI [2]: > 100 µM
- TGI [3]: > 100 µM
- TGI [4]: > 100 µM
- TGI [5]: 9.62 µM
- TGI [6]: 71.1 µM
- TGI [7]: 68.3 µM
- TGI [17]: > 100 µM
- TGI [18]: > 100 µM
- TGI [8]: 52.9 µM
- TGI [9]: > 100 µM
- TGI [11]: > 100 µM
- TGI [12]: > 100 µM
- TGI [13]: > 100 µM
- TGI [14]: > 100 µM
- TGI [15]: > 100 µM
- TGI [16]: > 100 µM

SMILES: CC(C)[C@H]1NC(=O)[C@H]2N=C(O[C@@H]2C)[C@@H]2CCCN2C(=O)[C@H](Cc2ccccc2)NC(=O)[C@@H]2COC(=N2)[C@@H](Cc2ccccc2)NC(=O)[C@@H]2COC1=N2
- TGI [1]: > 100 µM
- TGI [2]: > 100 µM
- TGI [3]: > 100 µM
- TGI [4]: > 100 µM
- TGI [5]: > 100 µM
- TGI [6]: > 100 µM
- TGI [7]: > 100 µM
- TGI [17]: > 100 µM
- TGI [18]: > 100 µM
- TGI [8]: > 100 µM
- TGI [9]: > 100 µM
- TGI [10]: 75.6 µM
- TGI [11]: > 100 µM
- TGI [12]: > 100 µM
- TGI [13]: > 100 µM
- TGI [15]: > 100 µM
- TGI [16]: > 100 µM

SMILES: O=C(O)CCCN=C(C(=NCCCC(=O)O)c1ccccc1)c1ccccc1
- TGI [1]: > 100 µM
- TGI [2]: > 100 µM
- TGI [3]: > 100 µM
- TGI [4]: > 100 µM
- TGI [5]: > 100 µM
- TGI [6]: > 100 µM
- TGI [8]: > 100 µM
- TGI [9]: > 100 µM
- TGI [10]: > 100 µM
- TGI [11]: > 100 µM
- TGI [12]: > 100 µM
- TGI [13]: > 100 µM
- TGI [14]: > 100 µM
- TGI [15]: > 100 µM
- TGI [16]: > 100 µM

SMILES: C[Si](C)(C)C#CCOC=C1CC1
- TGI [1]: > 100 µM
- TGI [2]: > 100 µM
- TGI [3]: > 100 µM
- TGI [4]: > 100 µM
- TGI [5]: > 100 µM
- TGI [6]: > 100 µM
- TGI [7]: > 100 µM
- TGI [17]: > 100 µM
- TGI [18]: > 100 µM
- TGI [8]: > 100 µM
- TGI [9]: > 100 µM
- TGI [10]: > 100 µM
- TGI [11]: > 100 µM
- TGI [12]: > 100 µM
- TGI [13]: > 100 µM
- TGI [15]: > 100 µM
- TGI [16]: > 100 µM

SMILES: O=C(NC(Cc1ccccc1)P(=O)(O)c1ccccc1)OCc1ccccc1 (configuration not stated)
- TGI [1]: > 100 µM
- TGI [2]: > 100 µM
- TGI [3]: > 100 µM
- TGI [4]: > 100 µM
- TGI [5]: > 100 µM
- TGI [6]: > 100 µM
- TGI [7]: > 100 µM
- TGI [17]: > 100 µM
- TGI [18]: > 100 µM
- TGI [8]: > 100 µM
- TGI [9]: > 100 µM
- TGI [10]: > 100 µM
- TGI [11]: > 100 µM
- TGI [12]: > 100 µM
- TGI [13]: > 100 µM
- TGI [15]: > 100 µM
- TGI [16]: > 100 µM

SMILES: CCCNC(=O)c1cc(NC(=O)c2cc(NC(=O)CCS(=O)(=O)OC)cn2C)cn1C
- TGI [1]: 72.2 µM
- TGI [2]: 48.7 µM
- TGI [3]: > 100 µM
- TGI [4]: > 69.8 µM
- TGI [5]: 42.1 µM
- TGI [6]: 43.6 µM
- TGI [17]: 24.6 µM
- TGI [18]: 6.07 µM
- TGI [8]: 98.9 µM
- TGI [9]: 53.5 µM
- TGI [10]: 48.4 µM
- TGI [11]: > 100 µM
- TGI [12]: > 100 µM
- TGI [13]: > 87.8 µM
- TGI [14]: > 100 µM
- TGI [15]: > 76.7 µM
- TGI [16]: > 100 µM

SMILES: N#CCCN(CCC#N)c1ccc(/C=C2\N=C(c3ccccc3)N(c3ccccc3)C2=O)cc1
- TGI [1]: > 100 µM
- TGI [2]: > 100 µM
- TGI [3]: > 100 µM
- TGI [4]: > 100 µM
- TGI [5]: > 100 µM
- TGI [6]: > 100 µM
- TGI [7]: > 100 µM
- TGI [17]: > 100 µM
- TGI [18]: > 100 µM
- TGI [8]: > 100 µM
- TGI [9]: > 100 µM
- TGI [11]: > 100 µM
- TGI [12]: > 100 µM
- TGI [13]: > 100 µM
- TGI [14]: > 100 µM
- TGI [15]: > 100 µM
- TGI [16]: > 100 µM

SMILES: COc1cc(N(CCC#N)CCC#N)ccc1/C(N=Nc1cccc(C)c1)=N\NC(=O)c1ccc(C)cc1
- TGI [1]: > 100 µM
- TGI [2]: > 100 µM
- TGI [3]: > 100 µM
- TGI [4]: > 100 µM
- TGI [5]: > 100 µM
- TGI [6]: > 100 µM
- TGI [7]: > 100 µM
- TGI [17]: > 100 µM
- TGI [18]: > 100 µM
- TGI [8]: > 100 µM
- TGI [9]: > 100 µM
- TGI [11]: > 100 µM
- TGI [12]: > 100 µM
- TGI [13]: > 100 µM
- TGI [14]: 44.1 µM
- TGI [15]: > 100 µM
- TGI [16]: > 100 µM
